Legend:
[1] = molecular target: T1, CDK2 (Homo sapiens, UniProt P24941); test: CDK protein degradation activity (Western blotting), CDK2; type: cell-based; settings: MDA-MB-231 cells, 16 hours, Western blot
T1 construct: endogenous in cells; host or cells: MDA-MB-231
Outline: (§1)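 MDA-MB-231 cells were treated with compound at final concentrations of 100 nM, 1 μM and 10 μM, or DMSO vehicle, for 16 h. Lysates were resolved by SDS-PAGE and immunoblotted for CDK2, CDK9 and tubulin, with band intensities quantified densitometrically.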

[2] = molecular target: T2, CDK9 (Homo sapiens, UniProt P50750); test: CDK protein degradation activity (Western blotting), CDK9; type: cell-based; settings: MDA-MB-231 cells, 16 hours, Western blot
T2 construct: endogenous in cells; host or cells: MDA-MB-231
Outline: as §1

T2 sequence (P50750 whole entry): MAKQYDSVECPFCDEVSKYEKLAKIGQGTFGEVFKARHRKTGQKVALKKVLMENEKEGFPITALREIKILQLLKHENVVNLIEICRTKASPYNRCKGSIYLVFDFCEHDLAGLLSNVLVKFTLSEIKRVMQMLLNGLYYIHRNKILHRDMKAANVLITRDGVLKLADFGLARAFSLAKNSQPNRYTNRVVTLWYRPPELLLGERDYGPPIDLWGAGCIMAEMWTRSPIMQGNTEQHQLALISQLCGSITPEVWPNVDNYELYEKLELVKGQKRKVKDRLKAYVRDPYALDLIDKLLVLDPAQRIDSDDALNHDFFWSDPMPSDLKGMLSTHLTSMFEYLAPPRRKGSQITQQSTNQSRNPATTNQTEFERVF

Compound: Cc1cccc(C(=O)NC2CC(n3cnc4c(NCc5ccc(N6CCN(CC7CCN(C(=O)CNc8ccc9c(c8)C(=O)N([C@H]8CCC(=O)NC8=O)C9=O)CC7)CC6)cc5)ncnc43)C2)n1 (stereo partly drawn) [Compound 153, N-((1s,3s)-3-(6-((4-(4-((1-((2-(2,6-dioxopiperidin-3-yl)-1,3-dioxoisoindolin-5-yl)glycyl)piperidin-4-yl)methyl)piperazin-1-yl)benzyl)amino)-9H-purin-9-yl)cyclobutyl)-6-methylpicolinamide]
- Enzyme degradation CDK2 (% remaining) @ 0.1 μM [1]: 10/10/10%
- Enzyme degradation CDK2 (% remaining) @ 1 μM [1]: 10/10/10%
- Enzyme degradation CDK2 (% remaining) @ 10 μM [1]: 10/10/10%
- Enzyme degradation CDK9 (% remaining) @ 0.1 μM [2]: 0/0/0%
- Enzyme degradation CDK9 (% remaining) @ 1 μM [2]: 0/0/0%
- Enzyme degradation CDK9 (% remaining) @ 10 μM [2]: 0/0/0%

Compound: CC(=O)N[C@H]1C[C@@H](n2cnc3c(NCC4CCN(CC5CCN(C(=O)COc6ccc7c(c6)C(=O)N([C@H]6CCC(=O)NC6=O)C7=O)CC5)CC4)ncnc32)C1 [Compound 154, N-((1s,3s)-3-(6-(((1-((1-(2-((2-(2,6-dioxopiperidin-3-yl)-1,3-dioxoisoindolin-5-yl)oxy)acetyl)piperidin-4-yl)methyl)piperidin-4-yl)methyl)amino)-9H-purin-9-yl)cyclobutyl)acetamide]
- Enzyme degradation CDK2 (% remaining) @ 0.1 μM [1]: 100%
- Enzyme degradation CDK2 (% remaining) @ 1 μM [1]: 70%
- Enzyme degradation CDK2 (% remaining) @ 10 μM [1]: 70%
- Enzyme degradation CDK9 (% remaining) @ 0.1 μM [2]: 90%
- Enzyme degradation CDK9 (% remaining) @ 1 μM [2]: 70%
- Enzyme degradation CDK9 (% remaining) @ 10 μM [2]: 30%

Compound: CC(=O)NC1CC(n2cnc3c(NCC4CCN(CC5CCN(C(=O)COc6cccc7c6C(=O)N([C@H]6CCC(=O)NC6=O)C7=O)CC5)CC4)ncnc32)C1 (stereo partly drawn) [Compound 155, N-((1s,3s)-3-(6-(((1-((1-(2-((2-(2,6-dioxopiperidin-3-yl)-1,3-dioxoisoindolin-4-yl)oxy)acetyl)piperidin-4-yl)methyl)piperidin-4-yl)methyl)amino)-9H-purin-9-yl)cyclobutyl)acetamide]
- Enzyme degradation CDK2 (% remaining) @ 0.1 μM [1]: 100%
- Enzyme degradation CDK2 (% remaining) @ 1 μM [1]: 80%
- Enzyme degradation CDK2 (% remaining) @ 10 μM [1]: 10%
- Enzyme degradation CDK9 (% remaining) @ 0.1 μM [2]: 90%
- Enzyme degradation CDK9 (% remaining) @ 1 μM [2]: 40%
- Enzyme degradation CDK9 (% remaining) @ 10 μM [2]: 0%

Compound: CC(=O)N[C@H]1C[C@@H](n2cnc3c(NCC4CCN(CC5CCN(C(=O)CNc6ccc7c(c6)C(=O)N([C@H]6CCC(=O)NC6=O)C7=O)CC5)CC4)ncnc32)C1 [Compound 156, N-((1s,3s)-3-(6-(((1-((1-((2-(2,6-dioxopiperidin-3-yl)-1,3-dioxoisoindolin-5-yl)glycyl)piperidin-4-yl)methyl)piperidin-4-yl)methyl)amino)-9H-purin-9-yl)cyclobutyl)acetamide]
- Enzyme degradation CDK2 (% remaining) @ 0.1 μM [1]: 100%
- Enzyme degradation CDK2 (% remaining) @ 1 μM [1]: 80%
- Enzyme degradation CDK2 (% remaining) @ 10 μM [1]: 70%
- Enzyme degradation CDK9 (% remaining) @ 0.1 μM [2]: 80%
- Enzyme degradation CDK9 (% remaining) @ 1 μM [2]: 50%
- Enzyme degradation CDK9 (% remaining) @ 10 μM [2]: 40%

Compound: CC(=O)NC1CC(n2cnc3c(NCC4CCN(CC5CCN(c6cccc7c6C(=O)N([C@H]6CCC(=O)NC6=O)C7=O)CC5)CC4)ncnc32)C1 (stereo partly drawn) [Compound 159, N-((1s,3s)-3-(6-(((1-((1-(2-(2,6-dioxopiperidin-3-yl)-1,3-dioxoisoindolin-4-yl)piperidin-4-yl)methyl)piperidin-4-yl)methyl)amino)-9H-purin-9-yl)cyclobutyl)acetamide]
- Enzyme degradation CDK2 (% remaining) @ 0.1 μM [1]: 100%
- Enzyme degradation CDK2 (% remaining) @ 1 μM [1]: 80%
- Enzyme degradation CDK2 (% remaining) @ 10 μM [1]: 50%
- Enzyme degradation CDK9 (% remaining) @ 0.1 μM [2]: 90%
- Enzyme degradation CDK9 (% remaining) @ 1 μM [2]: 70%
- Enzyme degradation CDK9 (% remaining) @ 10 μM [2]: 30%

Compound: CC(=O)N[C@H]1C[C@@H](n2cnc3c(NCc4ccc(N5CCN(CC6CCN(C(=O)CNc7ccc8c(c7)C(=O)N([C@H]7CCC(=O)NC7=O)C8=O)CC6)CC5)cc4)ncnc32)C1 [Compound 161, N-((1s,3s)-3-(6-((4-(4-((1-((2-(2,6-dioxopiperidin-3-yl)-1,3-dioxoisoindolin-5-yl)glycyl)piperidin-4-yl)methyl)piperazin-1-yl)benzyl)amino)-9H-purin-9-yl)cyclobutyl)acetamide]
- Enzyme degradation CDK2 (% remaining) @ 0.1 μM [1]: 90%
- Enzyme degradation CDK2 (% remaining) @ 1 μM [1]: 80%
- Enzyme degradation CDK2 (% remaining) @ 10 μM [1]: 60%
- Enzyme degradation CDK9 (% remaining) @ 0.1 μM [2]: 30%
- Enzyme degradation CDK9 (% remaining) @ 1 μM [2]: 10%
- Enzyme degradation CDK9 (% remaining) @ 10 μM [2]: 10%

Compound: O=C1CC[C@H](N2C(=O)c3ccc(OCC(=O)N4CCC(CN5CCN(c6ccc(Nc7ncnc8c7ncn8[C@H]7C[C@@H](NC(=O)c8c(Cl)cccc8Cl)C7)cc6)CC5)CC4)cc3C2=O)C(=O)N1 [Compound 162, 2,6-dichloro-N-((1s,3s)-3-(6-((4-(4-((1-(2-((2-(2,6-dioxopiperidin-3-yl)-1,3-dioxoisoindolin-5-yl)oxy)acetyl)piperidin-4-yl)methyl)piperazin-1-yl)phenyl)amino)-9H-purin-9-yl)cyclobutyl)benzamide]
- Enzyme degradation CDK2 (% remaining) @ 0.1 μM [1]: 50/50/50%
- Enzyme degradation CDK2 (% remaining) @ 1 μM [1]: 50/50/50%
- Enzyme degradation CDK2 (% remaining) @ 10 μM [1]: 50/50/50%
- Enzyme degradation CDK9 (% remaining) @ 0.1 μM [2]: 0/0/0%
- Enzyme degradation CDK9 (% remaining) @ 1 μM [2]: 0/0/0%
- Enzyme degradation CDK9 (% remaining) @ 10 μM [2]: 0/0/0%

Compound: O=C1CC[C@H](N2C(=O)c3cccc(OCC(=O)N4CCC(CN5CCN(c6ccc(Nc7ncnc8c7ncn8[C@H]7C[C@@H](NC(=O)c8c(Cl)cccc8Cl)C7)cc6)CC5)CC4)c3C2=O)C(=O)N1 [Compound 163, 2,6-dichloro-N-((1s,3s)-3-(6-((4-(4-((1-(2-((2-(2,6-dioxopiperidin-3-yl)-1,3-dioxoisoindolin-4-yl)oxy)acetyl)piperidin-4-yl)methyl)piperazin-1-yl)phenyl)amino)-9H-purin-9-yl)cyclobutyl)benzamide]
- Enzyme degradation CDK2 (% remaining) @ 0.1 μM [1]: 20%
- Enzyme degradation CDK2 (% remaining) @ 1 μM [1]: 10%
- Enzyme degradation CDK2 (% remaining) @ 10 μM [1]: 10%
- Enzyme degradation CDK9 (% remaining) @ 0.1 μM [2]: 0/0/0%
- Enzyme degradation CDK9 (% remaining) @ 1 μM [2]: 0/0/0%
- Enzyme degradation CDK9 (% remaining) @ 10 μM [2]: 0/0/0%

Compound: O=C1CC[C@H](N2C(=O)c3ccc(NCC(=O)N4CCC(CN5CCN(c6ccc(Nc7ncnc8c7ncn8C7CC(NC(=O)c8c(Cl)cccc8Cl)C7)cc6)CC5)CC4)cc3C2=O)C(=O)N1 (stereo partly drawn) [Compound 164, 2,6-dichloro-N-((1s,3s)-3-(6-((4-(4-((1-((2-(2,6-dioxopiperidin-3-yl)-1,3-dioxoisoindolin-5-yl)glycyl)piperidin-4-yl)methyl)piperazin-1-yl)phenyl)amino)-9H-purin-9-yl)cyclobutyl)benzamide]
- Enzyme degradation CDK2 (% remaining) @ 0.1 μM [1]: 30/30/30%
- Enzyme degradation CDK2 (% remaining) @ 1 μM [1]: 30/30/30%
- Enzyme degradation CDK2 (% remaining) @ 10 μM [1]: 30/30/30%
- Enzyme degradation CDK9 (% remaining) @ 0.1 μM [2]: 0/0/0%
- Enzyme degradation CDK9 (% remaining) @ 1 μM [2]: 0/0/0%
- Enzyme degradation CDK9 (% remaining) @ 10 μM [2]: 0/0/0%

Reference: patent publication US20260125382A1, “COMPOUNDS FOR INHIBITING OR DEGRADING CDK2 AND/OR CDK9 AND MEDICINAL USE THEREOF” (KOREA RESEARCH INSTITUTE OF CHEMICAL TECHNOLOGY, priority 2022, published 2026)
